Data published in PMC12212008 (Drug Design, Development and Therapy, 2025).

Columns and labels:
p53-Y220C mutant = details: covalent, targets Cys220; cited from earlier work
T-p53C-Y220C [1] = target: T1, T-p53C-Y220C (Homo sapiens, UniProt P04637, M133L/N239Y/N268D/V203A/Y220C); experiment: Intact protein mass spectrometry of T-p53C-Y220C; type: binding; details: protein-to-compound ratio 1:100, 24 h, 20 °C
T-p53C-Y220C [2] = target: T1, T-p53C-Y220C; experiment: DSF thermal shift of T-p53C-Y220C; type: binding; details: for T-p53C-Y220C ∆Tm ± SD, concentration-dependent DSF: 1000 µM

Structure (SMILES) | increase of Tm of the Y220C mutant (p53-Y220C mutant) | arylated T-p53C-Y220C protein species detected by intact MS (T-p53C-Y220C [1]) | T-p53C-Y220C ∆Tm ± SD (T-p53C-Y220C [2]; 250 µM, 24 h, 20 °C) [°C] | incubation time at which ∆Tm of T-p53C-Y220C plateaued / reached maximum (T-p53C-Y220C [2]; 1 mM, 20 °C, time-dependent DSF) | T-p53C-Y220C ∆Tm, time-dependent DSF (T-p53C-Y220C [2]; 1 mM, 10 min incubation, 20 °C) [°C] | T-p53C-Y220C ∆Tm ± SD, concentration-dependent DSF (T-p53C-Y220C [2]; 30 min) [°C] | T-p53C-Y220C ∆Tm ± SD (T-p53C-Y220C [2]; 1 mM, 30 min, 20 °C) [°C] | T-p53C-Y220C ∆Tm ± SD, concentration-dependent DSF (T-p53C-Y220C [2]; 24 h) [°C]
C=C(C)C(=O)n1cc(C)c2c(-c3ccc4c(c3)CCN(C)C4)cncc21 [KG13] | levels comparable to those of the WT protein | – | – | – | – | – | – | –
N#Cc1cnc(Cl)cn1 [SN006/7-3, 5-chloro-pyrazine-2-carbonitrile] | – | three, four, or five times | 2.87 | about 2 h | 2.30 | 2.65 | 2.75 | 3.55
